Test results: US12213970B2, “Pyridinyl sulfonamide derivatives, pharmaceutical compositions and uses thereof” (Boehringer Ingelheim International GmbH, priority 2018, dated 2025)
Where a name gives a salt, the structure may show the parent alone. Read-outs that look alike come from different tables or passages of the source.

Key:
AOC1 = molecular target: T1, AOC1 (Homo sapiens, UniProt P19801); test: AOC1 biochemical assay (Amplex Red)
T1 construct: purchased R&D Systems 8297-AO-010
T1 sequence (P19801 20-751): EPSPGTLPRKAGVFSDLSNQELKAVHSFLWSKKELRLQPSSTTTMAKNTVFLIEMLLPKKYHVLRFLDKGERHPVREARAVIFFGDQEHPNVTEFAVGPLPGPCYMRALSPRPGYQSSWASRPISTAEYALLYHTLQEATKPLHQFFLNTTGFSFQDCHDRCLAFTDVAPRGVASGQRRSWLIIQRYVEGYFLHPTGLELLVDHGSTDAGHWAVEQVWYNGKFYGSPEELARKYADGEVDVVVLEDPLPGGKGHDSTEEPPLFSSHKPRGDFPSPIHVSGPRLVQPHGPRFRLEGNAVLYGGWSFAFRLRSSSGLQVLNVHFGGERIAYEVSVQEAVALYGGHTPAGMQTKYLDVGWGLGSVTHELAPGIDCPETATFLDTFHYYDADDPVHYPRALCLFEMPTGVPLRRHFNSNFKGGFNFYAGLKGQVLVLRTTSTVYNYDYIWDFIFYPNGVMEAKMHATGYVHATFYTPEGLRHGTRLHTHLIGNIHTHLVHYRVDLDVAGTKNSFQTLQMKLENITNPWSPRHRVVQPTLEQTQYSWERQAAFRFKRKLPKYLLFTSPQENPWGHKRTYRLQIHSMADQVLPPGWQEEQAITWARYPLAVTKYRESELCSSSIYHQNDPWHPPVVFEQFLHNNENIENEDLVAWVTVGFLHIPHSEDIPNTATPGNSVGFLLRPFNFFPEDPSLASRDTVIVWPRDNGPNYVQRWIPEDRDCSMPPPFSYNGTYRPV
Method: The Amplex® Red Assay (available from Thermo Fisher Scientific) provides a sensitive method for the detection of H2O2 generated during enzymatic reactions like the amine oxidation catalyzed by AOC1. The assay reagent is a colorless substrate (N-acetyl-3,7-dihydroxyphenoxazine) that reacts in a 1:1 stoichiometry with hydrogen peroxide (H2O2) to produce the fluorescent dye resorufin (7-hydroxyphenoxazin-3-one, excitation/emission maxima=570/585 nm).
An aliquot of 3 μL of the compound dilution is added to a 384 well plate (Optiplate, PS, flat bottom F, black, PERKIN ELMER, #6007270) in a DMSO concentration of 6.6%.
An AOC1 enzyme aliquot (#8297-AO-010, R&D Systems) is thawed on ice, diluted in reaction buffer and added in a volume of 7 μL to the wells to give a final assay concentration of 1 ng/well. After incubation of inhibitor and enzyme for 30 minutes at 37° C., the enzymatic reaction is started with the addition of 10 μL of Amplex® Red reaction mix (final assay concentration: 100 mM sodiumphosphate, 120 μM Amplex® Red reagent (#A22177 Molecular Probes), 1.5 U/mL Horseradish Peroxidase (#P8375 Sigma-Aldrich), 200 μM putrescine (#P7505 Sigma-Alrdich), 0.05% Pluronic F-127 (#P3000MP Sigma-Aldrich), pH 7.4, 37° C.).
After an incubation for 30 minutes at 37° C. the turnover of the substrate is determined directly (or after the addition of an excess of an amine-oxidase inhibitor) with a fluorescence reader (Ex 540 nm/Em 590 nm) like Envision 2104 Multilabel Reader (PERKIN ELMER).

AOC2 = molecular target: T2, AOC2 (Homo sapiens, UniProt O75106); test: AOC2 biochemical assay (Amplex Red)
T2 construct: host or cells: HEK293 cells (transient transfection), cell homogenate
T2 sequence (O75106 1-756): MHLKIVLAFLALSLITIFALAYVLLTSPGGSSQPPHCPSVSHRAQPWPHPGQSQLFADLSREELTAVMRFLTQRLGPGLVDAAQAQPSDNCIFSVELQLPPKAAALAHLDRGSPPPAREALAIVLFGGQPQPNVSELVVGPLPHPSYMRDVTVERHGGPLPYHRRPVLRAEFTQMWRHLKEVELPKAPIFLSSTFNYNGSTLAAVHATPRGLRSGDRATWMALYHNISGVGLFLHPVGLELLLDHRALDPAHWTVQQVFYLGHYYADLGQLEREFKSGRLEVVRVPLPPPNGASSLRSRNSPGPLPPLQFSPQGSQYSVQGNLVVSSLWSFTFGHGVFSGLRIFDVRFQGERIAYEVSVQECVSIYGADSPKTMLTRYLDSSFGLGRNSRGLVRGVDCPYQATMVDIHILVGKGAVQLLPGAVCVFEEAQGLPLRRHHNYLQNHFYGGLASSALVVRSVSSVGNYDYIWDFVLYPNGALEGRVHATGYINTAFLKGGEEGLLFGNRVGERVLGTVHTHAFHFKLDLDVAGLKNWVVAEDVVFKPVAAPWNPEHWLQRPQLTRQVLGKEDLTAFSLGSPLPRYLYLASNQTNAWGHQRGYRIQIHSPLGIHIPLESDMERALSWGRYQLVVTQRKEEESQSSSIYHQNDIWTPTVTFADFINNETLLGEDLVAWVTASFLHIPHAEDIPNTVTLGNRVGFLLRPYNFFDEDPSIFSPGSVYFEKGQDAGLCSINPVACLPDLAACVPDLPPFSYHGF
Method: The Amplex® Red Assay (commercially available from Thermo Fisher Scientific) provides a sensitive method for the detection of H2O2 generated during enzymatic reactions like the amine oxidation catalyzed by AOC2. […] An aliquot of 5 μL of the compound dilution is added to a 96 well plate (flat bottom F, black, GREINER bio-one, #655900) in a DMSO concentration of 2%. […] Cells are cultured for 3 days in EMEM culture medium containing 10% FCS (#04-00-1A, Biological Industries). After washing twice with ice cold PBS, cells are lysed by mechanic homogenation and cleared supernatants are shock frozen in liquid nitrogen and stored at -80° C. For the determination of AOC2 enzymatic activity cell lysates are thawed on ice and 1:1 diluted with reaction buffer. An Aliquot of 45 μL is added to the compound dilution and incubated for 30 min at 37° C. The enzymatic reaction is started with the addition of 50 μL of Amplex® Red reaction mix (final assay concentration: 100 mM sodiumphosphate, 120 μM Amplex® Red reagent (#A22177 Molecular Probes), 1.5 U/mL Horseradish Peroxidase (#P8375 Sigma-Aldrich), 2 mM phenylethylamine (#[…] Sigma-Aldrich), 0.05% Pluronic F-127 (#P3000MP Sigma-Aldrich), pH 7.4, 37° C.). The turnover per time of the substrate is determined directly with a fluorescence reader (Ex 540 nm/Em 590 nm) like Envision 2104 Multilabel Reader (PERKIN ELMER) for 60 min. (cf. Anal Biochem (1997) 253:169-174; Anal Biochem (1997) 253:162-168)

[1] = comparison table, read-out: IC50 AOC1

| Structure (SMILES) | IC50 (AOC1; read-out: AOC1 IC50) [nM] | IC50 (AOC2; read-out: AOC2 IC50) [µM] | also measured |
| --- | --- | --- | --- |
| CN(C)C(=O)C1CN(S(=O)(=O)c2ccc(OC/C(=C\F)CN)nc2)C1 [Example 25] | 1320 | 0.068 | – |
| NC/C(=C/F)COc1ccc(S(=O)(=O)N2CCC(O)(C(F)(F)F)CC2)cn1 [Example 42] | 2360 | 0.009 | – |
| CC1(C(=O)O)CCN(S(=O)(=O)c2ccc(OC/C(=C\F)CN)nc2)CC1 [Example 47] | > 50000 | 0.005 | – |
| CNC(=O)[C@@]12C[C@@H]1CN(S(=O)(=O)c1ccc(OC/C(=C\F)CN)nc1)C2 [Example 29] | 1370 | 0.058 | – |
| CNC(=O)[C@H]1[C@@H]2CN(S(=O)(=O)c3ccc(OC/C(=C\F)CN)nc3)C[C@@H]21 [Example 27] | 1260 | 0.062 | – |
| NC/C(=C/F)COc1ccc(S(=O)(=O)N2CCC(CC(=O)N3CC(O)C3)CC2)cn1 [Example 55] | 27100 | – | – |
| CNC(=O)[C@@H]1CCN(S(=O)(=O)c2ccc(OC/C(=C\F)CN)nc2)C1 [Example 14] | 2150 | 0.203 | – |
| COC(=O)C1CCN(S(=O)(=O)c2ccc(OC/C(=C\F)CN)nc2)CC1 [Example 34] | 2400 | 0.078 | – |
| NC/C(=C/F)COc1ccc(S(=O)(=O)N2CCC(CC(N)=O)CC2)cn1 [Example 50] | 5310 | 0.016 | – |
| NC/C(=C/F)COc1ccc(S(=O)(=O)N2CC[C@H](O)C2)cc1 [Reference compound B, reference compound] | – | – | IC50 (AOC1; [1]): 1210 nM |
| NC/C(=C/F)COc1ccc(S(=O)(=O)N2CC[C@H](C(N)=O)C2)cn1 [Example 39] | 909 | 0.056 | – |
| CCNC(=O)CC1CCN(S(=O)(=O)c2ccc(OC/C(=C\F)CN)nc2)CC1 [Example 30] | 8900 | 0.044 | – |
| CC1(O)CCN(S(=O)(=O)c2ccc(OC/C(=C\F)CN)nc2)CC1 [Example 41] | 133 | 0.024 | – |
| NC/C(=C/F)COc1ccc(S(=O)(=O)N2C[C@@H]3[C@H](C2)[C@H]3C(=O)O)cn1 [Example 45, trans-3-[6-((Z)-2-Aminomethyl-3-fluoro-allyloxy)-pyridine-3-sulfonyl]-3-aza-bicyclo[3.1.0]hexane-6-carboxylic acid trifluoroacetate] | 37600 | 0.07 | – |
| CCNC(=O)C1(C)CCN(S(=O)(=O)c2ccc(OC/C(=C\F)CN)nc2)CC1 [Example 23] | > 50000 | 0.079 | – |
| CC(F)(F)CNC(=O)CC1CCN(S(=O)(=O)c2ccc(OC/C(=C\F)CN)nc2)CC1 [Example 51] | 10300 | – | – |

| Structure (SMILES) | IC50 (AOC1; read-out: AOC1 IC50) [nM] | IC50 (AOC2; read-out: AOC2 IC50) [µM] | also measured |
| --- | --- | --- | --- |
| CCNC(=O)C1CCN(S(=O)(=O)c2ccc(OC/C(=C\F)CN)nc2)CC1 [Example 15] | 4640 | 0.202 | – |
| NC/C(=C/F)COc1ccc(S(=O)(=O)N2CCC(C(=O)N3CCOCC3)CC2)cn1 [Example 3] | 16400 | – | IC50 (AOC2; value in μM, read-out: AOC2 IC50): 23.4 µM |
| CC(=O)NCC1CCN(S(=O)(=O)c2ccc(OC/C(=C\F)CN)nc2)CC1 [Example 28] | 3740 | 0.059 | – |
| NC/C(=C/F)COc1ccc(S(=O)(=O)N2CC[C@H](C(=O)N3CCOCC3)C2)cn1 [Example 21] | 4090 | 0.101 | – |
| NC/C(=C/F)COc1ccc(S(=O)(=O)N2CCC(CC(=O)NCCO)CC2)cn1 [Example 52] | 15100 | – | – |
| CN(C)C(=O)CC1CCN(S(=O)(=O)c2ccc(OC/C(=C\F)CN)nc2)CC1 [Example 19] | 12500 | 0.13 | – |
| COC1CN(S(=O)(=O)c2ccc(OC/C(=C\F)CN)nc2)C1 [Example 33] | 1140 | – | IC50 (AOC2; comparison table, read-out: IC50 AOC2): 0.055 µM |
| CC(C)(O)CNC(=O)[C@H]1CCN(S(=O)(=O)c2ccc(OC/C(=C\F)CN)nc2)C1 [Example 2] | 8140 | 0.272 | – |
| COCCNC(=O)CC1CCN(S(=O)(=O)c2ccc(OC/C(=C\F)CN)nc2)CC1 [Example 54] | 10500 | – | – |
| CNC(=O)[C@@H]1CCCN1S(=O)(=O)c1ccc(OC/C(=C\F)CN)nc1 [Example 8] | 497 | 0.257 | – |
| NC/C(=C/F)COc1ccc(S(=O)(=O)N2CC(C(N)=O)C2)cn1 [Example 20] | 1360 | 0.119 | – |
| CC1(C(=O)NCCF)CCN(S(=O)(=O)c2ccc(OC/C(=C\F)CN)nc2)CC1 [Example 53] | 14600 | – | – |
| COC(=O)[C@H]1[C@@H]2CN(S(=O)(=O)c3ccc(OC/C(=C\F)CN)nc3)C[C@@H]21 [Example 35, trans-3-[6-((Z)-2-Aminomethyl-3-fluoro-allyloxy)-pyridine-3-sulfonyl]-3-aza-bicyclo[3.1.0]hexane-6-carboxylic acid methyl ester trifluoroacetate] | 1840 | 0.277 | – |
| CC1(C(=O)NC2CC2)CCN(S(=O)(=O)c2ccc(OC/C(=C\F)CN)nc2)CC1 [Example 56] | 11500 | – | – |
| NC/C(=C/F)COc1cnc(N2CCC(O)CC2)nc1 [reference compound] | – | – | IC50 (AOC1; [1]): 66 nM |
